16 molecules from patent US20260306460A1, “COMPOSITION FOR REMOVING AND INHIBITING SENESCENT CELLS, AND USES THEREOF” (LIFECEUTIX CO., LTD., priority 2023, published 2026) can be followed below.

Like-named read-outs stand apart in the source and are kept apart here.

What all share (assay type): in vivo, mouse
The test system of assay [1] is bleomycin-induced pulmonary fibrosis mice. The experiment in a line: Bleomycin-induced pulmonary fibrosis mice, Example 31, Table 56. The settings on record: untreated = 100%. The method in brief:
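Mice with bleomycin-induced pulmonary fibrosis, untreated or given test compound, with vehicle-only controls. Lung tissue collected for RNA extraction and qRT-PCR analysis.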

Assay [2] deals with doxorubicin-induced aged C57BL6J mice. The assay is described as follows: Hair loss area in doxorubicin-aged mice, Example 22-11, Table 40. As to the method: Eight-week-old male C57BL6J mice (KRIBB Laboratory Animal Resource Center) were acclimated to the experimental environment for one week. Afterwards, the anticancer agent doxorubicin was administered intraperitoneally at a concentration of 10 mg/kg, inducing aging for more than 10 days. The aging-induced mice were randomly assigned to experimental and control groups. LX-403 was mixed with a 10% ethanol solution of PEG400 and administered orally at a concentration of 25 mg/kg or intradermally at a concentration of 1 μM for 21 days. LX-1801 was mixed in distilled water with 4% DMSO, 30% PEG300, and 5% Tween80 and administered intradermally at a concentration of 0.4 μM daily for 21 days. LX-2001 was mixed in PBS and administered intradermally at a concentration of 2 μM daily for 21 days. LX-2002 was mixed in distilled water with 4% DMSO, 30% PEG300, and 5% Tween80 and administered intradermally at a concentration of 2 μM daily for 21 days. […] LX-2005 was mixed in distilled water with 4% DMSO, 30% PEG300, and 5% Tween80 and administered intradermally at a concentration of 90 μM daily for 21 days. LX-2007 was mixed in distilled water with 4% DMSO, 30% PEG300, and 5% Tween80 and administered intradermally at a concentration of 90 μM daily for 21 days. […] LX-3002 was mixed in distilled water with 4% DMSO, 30% PEG300, and 5% Tween80 and administered orally at a concentration of 10 mg/kg daily for 21 days. […] LX-5411 was mixed in 5% phosphate-buffered saline (PBS) and administered orally at a concentration of 10 mg/kg daily for 21 days or intradermally at a concentration of 3 μM. LX-5701 was mixed in PBS and administered orally at a concentration of 360 mg/kg daily for 21 days. LX-6807 was mixed in saline and administered intraperitoneally at a concentration of 1 mg/kg daily for 21 days. The control group received only the solution in the same volume. After the end of drug administration, the methods described in each example below were performed.
Alopecia is one of the most troubling side effects of chemotherapy, for which there is currently no treatment. Hair loss in mice induced to age by the anticancer drug was quantified using imaging software such as ImageJ (NIH) from digital photographs taken using a fixed camera position and magnification.

For assay [3], the system named is naturally aged mice. The assay is described as follows: p16, MMP3, IL6 mRNA in liver of naturally aged mice (qRT-PCR), Example 15. The settings on record: untreated aged = 100%, 5 days; for p16 mRNA: LX-405 10 mg/kg ip, LX-801 100 mg/kg ip, LX-1102 100 mg/kg po, LX-1801 50 mg/kg ip, LX-2101 10 mg/kg ip, LX-3403 100 μg ip; for IL6 mRNA / MMP3 mRNA: doses as p16 mRNA. As to the method: In the same manner as in Example 7-1 of WO2023-085787 A1, naturally aged mice were administered LX-405 (5% DMSO in PBS solution, 10 mg/kg, intraperitoneal administration), LX-801 (PBS, 100 mg/kg, intraperitoneal administration), LX-1102 (0.5% CMC-Na solution, 100 mg/kg, oral administration), LX-1801 (PBS, 50 mg/kg, intraperitoneal administration), LX-2101 (0.5% CMC-Na solution, 10 mg/kg, intraperitoneal administration), and LX-3403 (mouse anti-PD-1 antibody (BioXcell), 100 μg, intraperitoneal administration) for 5 days under the following conditions. The control group was administered only the solution in the same volume. After drug administration was completed, the method described in each Example below was performed. The mouse was sacrificed in the same manner as Example 7-2 and 7-6 of WO2023-085787 A1. Total RNA was extracted from liver tissue, and qRT-PCR was performed and analyzed using synthesized cDNA. […] The mRNA amounts of p16, MMP3, and IL6 after natural aging were induced were calculated as 100% and compared them with the mRNA amounts of p16, MMP3, and IL6 after treatment with the test compound. Furthermore, an open field test was performed to analyze aging-related frailty in mice using the same method as Example 7-7 of WO2023-085787 A1. […] The amount of activity evaluated after inducing aging was calculated as 100% and compared it with the amount of activity evaluated after treatment with the test compound.
On the technique in general: Real-time PCR tracks product formation cycle by cycle.

Assay [4] relates to carbon tetrachloride-induced liver fibrosis C57BL6J mice. The assay is described as follows: Carbon tetrachloride liver disease in mice (p16, IL6, Col1a1 mRNA, AST), Example 26, Table 50. The settings on record: daily for 21 days, untreated 100%; for Col1a1 mRNA / IL6 mRNA / p16 mRNA: liver. As to the method: Eight-week-old male C57BL6J mice (KRIBB Laboratory Animal Resource Center) were acclimated to the experimental environment for one week. Carbon tetrachloride (CCL4) was administered intraperitoneally at a concentration of 0.5 μl/g, and aging was induced for at least six weeks. The aging-induced mice were randomly assigned to experimental and control groups. […] The control group received only the solution in the same volume. After the drug administration was terminated, mice were sacrificed, and RNA was extracted from the liver in the same manner as in Example 7-2 of WO2023-085787 A1, and qRT-PCR was performed using the synthesized cDNA. […] The mRNA and AST amounts after aging was induced were calculated as 100% and compared with the mRNA amount of p16 after treatment with the test compound.

Setting [5] is: doxorubicin-induced aged mice, untreated 100 (±15.4).

`O=C(C(C[N+](=O)[O-])=NO)N1CCN(C(c2ccc(Cl)cc2)c2ccc(Cl)cc2)CC1` [LX-403]: in assay [1], the “Lung p16 mRNA” value is on record as 32 (±1.4) % and the “Col1a1 mRNA” value is recorded as 44 (±3.1) %. Besides, the “Relative area of hair loss” value in assay [2] (setting [5]) was 76 (±5.5) %.

Take `COC(=O)c1ccc([C@H]2c3[nH]c4ccccc4c3C[C@H](C(=O)OC)N2C(=O)CCl)cc1` [LX-405]: in assay [3], the “p16 mRNA” value is reported as 76.9 (±6.8) %, the “IL6 mRNA” value was 73.6 (±7.4) % and the “MMP3 mRNA” value is reported as 64.7 (±11.5) %.

For the molecule `S=C(N/N=C1\CCCc2cccnc21)N1CCN(c2ccccn2)CC1` [LX-801], in assay [1], the “Lung p16 mRNA” value is listed as 48 (±4.8) % and the “Col1a1 mRNA” value was 43 (±10.6) %. Besides, in assay [3], the “p16 mRNA” value is listed as 69.4 (±6.9) %, the “IL6 mRNA” value is listed as 71.1 (±1.8) % and the “MMP3 mRNA” value was 76.5 (±4.2) %.

Take `C[C@@H]1CC[C@@]23C[C@H](O)C(=O)[C@@]2(O)[C@]1(C)[C@H](OC(=O)CCl)C[C@@H](C1=CCn2c(=O)n(-c4ccccc4)c(=O)n2C1)[C@@H]3C` [LX-1801, (2S,3aS,4S,5R,7R,8S,8aS,11R)-7-(1,3-Dioxo-2-phenyl-2,3,5,8-tetrahydro-1H-[1,2,4]triazolo[1,2-a]pyridazin-6-yl)-2,3a-dihydroxy-4,8,11-trimethyl-3-oxooctahydro-1H-4,8a-propanoazulen-5-yl 2-Chloroacetate]: in assay [1], the “Lung p16 mRNA” value was 53 (±13.7) % and the “Col1a1 mRNA” value is recorded as 38 (±20.8) %. In assay [3], the “p16 mRNA” value is on record as 77.4 (±5.2) %, the “IL6 mRNA” value is recorded as 56.8 (±19.3) % and the “MMP3 mRNA” value is given as 47.1 (±15.6) %. In addition, the “Relative area of hair loss” value in assay [2] (setting [5]) was 78 (±5.4) %.

Turning to `C[C@H]1[C@H](C)CC[C@]2(C(=O)O)CC[C@]3(C)C(=CC[C@@H]4[C@@]5(C)CC[C@H](O)C(C)(C)[C@@H]5CC[C@]43C)[C@H]12` [LX-2001, Ursolic acid], the “Relative area of hair loss” value in assay [2] (setting [5]) is given as 80 (±6.9) %.

Consider `C[C@H]1[C@H](C)CC[C@]2(C(=O)O)CC[C@]3(C)C(=CC[C@@H]4[C@@]5(C)C[C@@H](O)[C@H](O)C(C)(C)[C@@H]5CC[C@]43C)[C@H]12` [LX-2002, Corosolic acid], for which the “Relative area of hair loss” value in assay [2] (setting [5]) is 83 (±10.4) %.

As to `CC1(C)CC[C@]2(C(=O)O)CC[C@]3(C)C(=CC[C@@H]4[C@@]5(C)CC[C@H](O)C(C)(C)[C@@H]5CC[C@]43C)[C@@H]2C1` [LX-2003, Oleanolic acid], in assay [2] (setting [5]), the “Relative area of hair loss” value is reported as 79 (±6.7) %.

As for `C=C(C)[C@@H]1CC[C@]2(C(=O)O)CC[C@]3(C)[C@H](CC[C@@H]4[C@@]5(C)CC[C@H](O)C(C)(C)[C@@H]5CC[C@]43C)[C@@H]12` [LX-2005, Betulinic acid], the “Relative area of hair loss” value in assay [2] (setting [5]) was 82 (±4.6) %.

For `CC1(C)C=C2[C@H]3CC[C@@H]4[C@@]5(C)CCC(=O)C(C)(C)[C@@H]5CC[C@@]4(C)[C@]3(C)CC[C@@]2(C(=O)O)CC1` [LX-2007, Moronic acid], the “Relative area of hair loss” value in assay [2] (setting [5]) was 86 (±2.9) %.

For the molecule `CC1(C)CC[C@]2(NC(=O)C(C)(F)F)CC[C@]3(C)[C@H](C(=O)C=C4[C@@]5(C)C=C(C#N)C(=O)C(C)(C)[C@@H]5CC[C@]43C)[C@@H]2C1` [LX-2101, Omaveloxolone], in assay [3], the “p16 mRNA” value is 62.5 (±13.1) %, the “IL6 mRNA” value is 64.1 (±8.8) % and the “MMP3 mRNA” value is 53.6 (±14.3) %. Further, the “Relative area of hair loss” value in assay [2] was 79 (±3.9) %.

`CCCC\C=C/C=C/C=C\CCCCCCCC(=O)O` [LX-2707, Punicic acid]: in assay [4], the “Col1a1 mRNA” value is 76 (±2.5) %, the “IL6 mRNA” value is reported as 56 (±2.1) %, the “p16 mRNA” value is on record as 68 (±1.6) % and the “Serum AST” value was 79 (±5.6) %.

With `COC(=O)[C@H]1Cc2c([nH]c3ccccc23)[C@H](c2ccc(S(C)(=O)=O)cc2)N1C(=O)CCl` [LX-5401, methyl (1S,3R)-2-(2-chloroacetyl)-1-(4-(methylsulfonyl)phenyl)-2,3,4,9-tetrahydro-1H-pyrido[3,4-b]indole-3-carboxylate], in assay [1], the “Lung p16 mRNA” value is on record as 67 (±8.1) % and the “Col1a1 mRNA” value is 59 (±12.8) %.

For the molecule `C#CC(=O)N1[C@@H](CCCC)Cc2cc(OC)ccc2[C@@H]1c1ccc(NC23CC4CC(CC(C4)C2)C3)cc1` [LX-5411], in assay [1], the “Lung p16 mRNA” value is reported as 61 (±13.2) % and the “Col1a1 mRNA” value is reported as 44 (±11.1) %. Besides, the “Relative area of hair loss” value in assay [2] (setting [5]) was 77 (±4.1) %.

As to `O=C1C2CCN(CC2)C1CNC(=O)C(F)(F)F` (stereo not shown) [LX-5701], in assay [4], the “Col1a1 mRNA” value is 62 (±6.7) %, the “IL6 mRNA” value is reported as 53 (±17.6) %, the “p16 mRNA” value is 70 (±6.2) % and the “Serum AST” value was 77 (±8.0) %. The “Relative area of hair loss” value in assay [2] (setting [5]) was 67 (±17.8) %.

For `Cc1cccc([C@H](C)c2cnc[nH]2)c1C` [LX-6807, Dexmedetomidine], in assay [4], the “Col1a1 mRNA” value is reported as 51 (±3.1) %, the “IL6 mRNA” value is 58 (±2.6) %, the “p16 mRNA” value is on record as 67 (±3.0) % and the “Serum AST” value is given as 75 (±1.4) %. Moreover, the “Relative area of hair loss” value in assay [2] (setting [5]) was 59 (±3.2) %.

Take Tocofersolan [LX-3001]: in assay [4], the “Col1a1 mRNA” value is on record as 71 (±2.4) %, the “IL6 mRNA” value is on record as 65 (±3.4) %, the “p16 mRNA” value is 76 (±3.7) % and the “Serum AST” value is on record as 82 (±4.5) %.
